Reference: patent US8188059B2, “Compounds and methods for modulating expression of GCGR” (Isis Pharmaceuticals, Inc., priority 2006, dated 2012)
Strand notation (5' to 3'): a small letter for the sugar, then the base; units joined by * are phosphorothioate-linked, units joined directly phosphodiester-linked; [ ] holds rarer units or linkages, { } end groups; capitals alone tell only the bases. e = 2'-O-(2-methoxyethyl) (MOE); [5mC] = 5-methylcytosine; d = 2'-deoxy (DNA)

Experiments:
PTP1B mRNA [1] = assay: Dose response for human PTP1B in HuVEC cells, Primer Probe Set 3000 (Example 25, Table 87); format: cell-based
Protocol: (§1) Human vascular endothelial (HuVEC) cells were plated at a density of 5000 cells per well and treated as described herein with nM concentrations of short antisense compound as indicated in Table 86. After the treatment period, RNA was isolated from the cells and PTP1B mRNA levels were measured by quantitative real-time PCR, as described herein. PTP1B mRNA levels were adjusted according to total RNA content as measured by RIBOGREEN®. Two different human PTP1B primer probe sets were used to measure mRNA levels. Results with Primer Probe Set (PPS) 198 are shown in Table 86, and results with Primer Probe Set (PPS) 3000 are shown in Table 87. Results are presented as percent inhibition of PTP1B mRNA expression relative to untreated control cells.

PTP1B mRNA [2] = assay: Dose response for human PTP1B in HuVEC cells, Primer Probe Set 198 (Example 25, Table 86); format: cell-based
Protocol: as §1

PCSK9 mRNA [3] = format: cell-based, human; details: Hep3B cells, 100 nM, relative to untreated control cells; for % Inhib (PCSK9 mRNA): 0 = no reduction observed
Protocol: When cells reached appropriate confluency, they were treated with oligonucleotide using LIPOFECTIN® as described. […] Cells were treated and data were obtained in duplicate or triplicate. […] Cells were harvested 16-24 hours after oligonucleotide treatment.
Short antisense compounds targeted to a PCSK9 nucleic acid were tested for their effects on PCSK9 mRNA in vitro. The Isis No, gapmer motif and SEQ ID NO of each short antisense compound are shown again in Table 75. Cultured Hep3B cells were treated with 100 nM of short antisense compound. 5-10-5 MOE gapmers targeted to a PCSK9 nucleic acid were used as positive controls. After the treatment period, RNA was isolated from the cells and PCSK9 mRNA levels were measured by quantitative real-time PCR, as described herein. PCSK9 mRNA levels were adjusted according to total RNA content as measured by RIBOGREEN®. Results are presented in Table 75 as percent inhibition of PCSK9 (% Inhib), relative to untreated control cells.

PCSK9 mRNA [4] = assay: Dose-dependent inhibition of PCSK9 in Hep3B cells with EC50 (Example 19, Table 76); format: cell-based, human
Protocol: Short antisense compounds targeted to a PCSK9 nucleic acid were tested in a dose response experiment Hep3B cells. After the treatment period, RNA was isolated from the cells and PCSK9 mRNA levels were measured by quantitative real-time PCR, as described herein. PCSK9 mRNA levels were normalized to cyclophilin mRNA levels, as measured by real-time PCR using a cyclophilin-specific primer probe set. Results are presented as percent inhibition of PCSK9, relative to untreated control cells. […] As illustrated in the following table, PCSK9 mRNA levels were reduced in a dose-dependent manner.

Row | Substance | % Inhibition of PTP1B mRNA (PTP1B mRNA [1]; PPS 3000, 1.11 nM) | % Inhibition of PTP1B mRNA (PTP1B mRNA [1]; PPS 3000, 3.33 nM) | % Inhibition of PTP1B mRNA (PTP1B mRNA [1]; PPS 3000, 10.0 nM) | % Inhibition of PTP1B mRNA (PTP1B mRNA [1]; PPS 3000, 30.0 nM) | % Inhibition of PTP1B mRNA (PTP1B mRNA [2]; PPS 198, 1.11 nM) | % Inhibition of PTP1B mRNA (PTP1B mRNA [2]; PPS 198, 3.33 nM) | % Inhibition of PTP1B mRNA (PTP1B mRNA [2]; PPS 198, 10.0 nM) | % Inhibition of PTP1B mRNA (PTP1B mRNA [2]; PPS 198, 30.0 nM) | % Inhibition Range (PCSK9 mRNA) (PCSK9 mRNA [3]) | % Inhib (PCSK9 mRNA) (PCSK9 mRNA [3]) | % Inhibition of PCSK9 (PCSK9 mRNA [4]; 5 nM) | % Inhibition of PCSK9 (PCSK9 mRNA [4]; 10 nM) | % Inhibition of PCSK9 (PCSK9 mRNA [4]; 20 nM) | % Inhibition of PCSK9 (PCSK9 mRNA [4]; 40 nM) | % Inhibition of PCSK9 (PCSK9 mRNA [4]; 80 nM) | % Inhibition of PCSK9 (PCSK9 mRNA [4]; 160 nM)
1 | 399096 (antisense eT*eG*d[5mC]*dT*d[5mC]*dG*dA*dA*d[5mC]*dT*d[5mC]*d[5mC]*eT*eT) [compound 399096] | 0% | 23% | 75% | 94% | 3% | 30% | 78% | 96% |  |  |  |  |  |  |  | 
2 | 399102 (antisense eG*eA*dA*dG*dT*d[5mC]*dA*d[5mC]*dT*dG*dG*d[5mC]*eT*eT) [compound 399102] | 0% | 9% | 60% | 87% | 0% | 15% | 62% | 88% |  |  |  |  |  |  |  | 
3 | 399113 (antisense eG*eT*dT*dA*dG*dG*d[5mC]*dA*dA*dA*dG*dG*eG*e[5mC]) [compound 399113] | 0% | 9% | 65% | 90% | 0% | 31% | 72% | 90% |  |  |  |  |  |  |  | 
4 | 399132 (antisense eG*eG*dG*d[5mC]*dT*dG*dA*dG*dT*dG*dA*d[5mC]*e[5mC]*e[5mC]) [compound 399132] | 0% | 26% | 76% | 91% | 0% | 32% | 75% | 95% |  |  |  |  |  |  |  | 
5 | 399173 (antisense eA*eT*dG*d[5mC]*dT*dA*dG*dT*dG*d[5mC]*dA*d[5mC]*eT*eA) [compound 399173] | 0% | 11% | 59% | 92% | 0% | 24% | 63% | 89% |  |  |  |  |  |  |  | 
6 | 399208 (antisense eA*eG*d[5mC]*dT*d[5mC]*dG*d[5mC]*dT*dA*d[5mC]*d[5mC]*dT*e[5mC]*eT) [compound 399208] | 0% | 47% | 85% | 96% | 0% | 37% | 86% | 93% |  |  |  |  |  |  |  | 
7 | 399276 (antisense eG*eA*dG*dG*dT*dA*dT*d[5mC]*d[5mC]*d[5mC]*dA*dT*e[5mC]*eT) [compound 399276] | 0% | 14% | 64% | 86% | 0% | 8% | 61% | 89% |  |  |  |  |  |  |  | 
8 | 399315 (antisense eG*eG*d[5mC]*dA*dA*d[5mC]*dT*dT*d[5mC]*dA*dA*d[5mC]*e[5mC]*eT) [compound 399315] | 0% | 25% | 71% | 93% | 0% | 20% | 68% | 88% |  |  |  |  |  |  |  | 
9 | 400307 (e[5mC]*eG*dG*d[5mC]*d[5mC]*dG*d[5mC]*dT*dG*dA*d[5mC]*d[5mC]*eA*e[5mC]; antisense) [compound 400307] |  |  |  |  |  |  |  |  | 70-80% | 76% | 35% | 39% | 45% | 56% | 92% | 93%
10 | 400308 (e[5mC]*e[5mC]*dG*dG*d[5mC]*d[5mC]*dG*d[5mC]*dT*dG*dA*d[5mC]*e[5mC]*eA; antisense) [compound 400308] |  |  |  |  |  |  |  |  | 50-60% | 55% | 31% | 10% | 26% | 40% | 77% | 86%
11 | 400309 (e[5mC]*e[5mC]*d[5mC]*dG*dG*d[5mC]*d[5mC]*dG*d[5mC]*dT*dG*dA*e[5mC]*e[5mC]; antisense) [compound 400309] |  |  |  |  |  |  |  |  | 40-50% | 44% | 49% | 23% | 38% | 12% | 72% | 78%
12 | 400327 (eG*eT*d[5mC]*d[5mC]*d[5mC]*d[5mC]*dA*dA*dA*dG*dT*d[5mC]*e[5mC]*e[5mC]; antisense) [compound 400327] |  |  |  |  |  |  |  |  | 30-40% | 36% | 5% | 37% | 23% | 49% | 43% | 55%
13 | 400330 (e[5mC]*e[5mC]*dA*d[5mC]*dG*dT*dG*dG*dG*d[5mC]*dA*dG*e[5mC]*eA; antisense) [compound 400330] |  |  |  |  |  |  |  |  | 40-50% | 43% | 8% | 32% | 40% | 69% | 82% | 71%
14 | 400331 (eG*e[5mC]*d[5mC]*dA*d[5mC]*dG*dT*dG*dG*dG*d[5mC]*dA*eG*e[5mC]; antisense) [compound 400331] |  |  |  |  |  |  |  |  | 30-40% | 35% | 29% | 40% | 47% | 63% | 75% | 82%
15 | 400352 (antisense e[5mC]*eA*d[5mC]*d[5mC]*d[5mC]*dT*d[5mC]*dA*d[5mC]*d[5mC]*d[5mC]*d[5mC]*e[5mC]*eA) [compound 400352] |  |  |  |  |  |  |  |  | 20-30% | 29% | 7% | 16% | 40% | 44% | 63% | 64%
